Data from publication PMC9289666, “Highly Parallelized, Multicolor Optogenetic Recordings of Cellular Activity for Therapeutic Discovery Applications in Ion Channels and Disease-Associated Excitable Cells” (Frontiers in Molecular Neuroscience, 2022).
pIC50: −log10 of the molar value. Like-named read-outs stand apart in the source and are kept apart here.

Assays:
Nav1.5 = conditions: cited from earlier work
human Nav.1.7 = target: T1, human Nav.1.7 (Homo sapiens, UniProt Q15858); experiment: Nav1.7 spiking HEK assay on Swarm; format: cell-based
T1 construct: expressed in transfected cells

[1] = read-out: Nav1.5 Ionworks (IC50), automated patch clamp, literature reported, ref Harmer et al., 2011
[2] = normalized mean spike amplitude score, Prestwick library compounds
[3] = compounds at 1 μM, cutoff 0.5 mean spike amplitude

T1 sequence (Q15858 whole entry): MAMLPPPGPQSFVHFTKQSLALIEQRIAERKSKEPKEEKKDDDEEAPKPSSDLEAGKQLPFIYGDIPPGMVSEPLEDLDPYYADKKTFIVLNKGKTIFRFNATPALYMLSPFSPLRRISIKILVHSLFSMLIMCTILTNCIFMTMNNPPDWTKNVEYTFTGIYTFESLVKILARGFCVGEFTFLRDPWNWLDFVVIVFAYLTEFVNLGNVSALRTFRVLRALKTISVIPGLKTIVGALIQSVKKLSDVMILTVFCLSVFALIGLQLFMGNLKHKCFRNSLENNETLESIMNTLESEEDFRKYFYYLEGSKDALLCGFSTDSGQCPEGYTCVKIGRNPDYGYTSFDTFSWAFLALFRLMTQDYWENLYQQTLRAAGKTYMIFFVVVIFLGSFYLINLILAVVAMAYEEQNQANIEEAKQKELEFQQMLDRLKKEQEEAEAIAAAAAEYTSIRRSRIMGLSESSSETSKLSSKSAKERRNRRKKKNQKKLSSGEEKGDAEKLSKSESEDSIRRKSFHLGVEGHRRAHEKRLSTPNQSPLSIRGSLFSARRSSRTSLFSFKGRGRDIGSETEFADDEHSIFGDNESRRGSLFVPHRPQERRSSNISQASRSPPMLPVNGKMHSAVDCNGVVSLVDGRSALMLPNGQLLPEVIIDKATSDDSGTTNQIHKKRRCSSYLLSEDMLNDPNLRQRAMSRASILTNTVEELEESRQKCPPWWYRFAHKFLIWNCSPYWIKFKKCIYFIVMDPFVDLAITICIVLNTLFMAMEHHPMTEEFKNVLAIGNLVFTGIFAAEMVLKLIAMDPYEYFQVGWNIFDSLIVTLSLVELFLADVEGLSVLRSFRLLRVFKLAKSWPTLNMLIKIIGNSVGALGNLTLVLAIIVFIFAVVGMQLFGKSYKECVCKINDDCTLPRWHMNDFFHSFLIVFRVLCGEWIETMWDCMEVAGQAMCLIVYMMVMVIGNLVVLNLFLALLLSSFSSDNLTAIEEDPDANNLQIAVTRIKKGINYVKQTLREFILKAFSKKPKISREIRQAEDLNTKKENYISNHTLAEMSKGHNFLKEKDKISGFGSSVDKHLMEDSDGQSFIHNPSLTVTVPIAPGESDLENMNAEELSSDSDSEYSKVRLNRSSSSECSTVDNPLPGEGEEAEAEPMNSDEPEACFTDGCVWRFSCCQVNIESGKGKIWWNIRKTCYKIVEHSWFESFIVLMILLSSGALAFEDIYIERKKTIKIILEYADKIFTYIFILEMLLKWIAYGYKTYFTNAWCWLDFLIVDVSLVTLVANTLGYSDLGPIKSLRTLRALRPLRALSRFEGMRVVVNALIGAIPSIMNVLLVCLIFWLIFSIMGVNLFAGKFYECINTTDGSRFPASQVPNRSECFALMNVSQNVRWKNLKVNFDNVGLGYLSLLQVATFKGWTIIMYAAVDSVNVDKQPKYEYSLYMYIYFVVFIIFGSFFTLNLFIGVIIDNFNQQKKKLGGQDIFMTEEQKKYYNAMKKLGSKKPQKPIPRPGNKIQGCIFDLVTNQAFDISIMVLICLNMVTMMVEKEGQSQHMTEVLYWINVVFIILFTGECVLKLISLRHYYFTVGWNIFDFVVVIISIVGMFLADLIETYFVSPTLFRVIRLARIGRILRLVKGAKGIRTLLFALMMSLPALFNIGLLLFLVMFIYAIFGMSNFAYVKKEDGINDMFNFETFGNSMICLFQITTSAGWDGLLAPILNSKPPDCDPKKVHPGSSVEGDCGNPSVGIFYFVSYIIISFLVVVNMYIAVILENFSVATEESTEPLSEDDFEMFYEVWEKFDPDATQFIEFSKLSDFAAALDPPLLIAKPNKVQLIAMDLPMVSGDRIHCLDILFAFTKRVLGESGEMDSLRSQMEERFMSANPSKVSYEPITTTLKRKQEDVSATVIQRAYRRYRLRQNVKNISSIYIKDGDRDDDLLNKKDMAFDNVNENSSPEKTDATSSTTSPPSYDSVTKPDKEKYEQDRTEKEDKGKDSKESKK

Row | Nav1.7 Swarm (score at 3 µM) (human Nav.1.7; [2]) | SMILES | pIC50 (Nav1.5; [1]) | also measured
1 | 0.59 | C1CCC(C(CC2CCCCN2)C2CCCCC2)CC1 (stereo not shown) [Perhexiline] | 5.47 | 
2 | 0.15 | CCOC(=O)Nc1ccc2c(c1)N(C(=O)CCN1CCOCC1)c1ccccc1S2 [Moricizine] | 5.92 | 
3 | 0.95 | CCN(CC)Cc1cc(Nc2ccnc3cc(Cl)ccc23)ccc1O [Amodiaquin] | 5.01 | 
4 | 0.92 | CN(C)CCCC1(c2ccc(F)cc2)OCc2cc(C#N)ccc21 (stereo not shown) [Citalopram] | 4.83 | 
5 | 1.07 | CCN(CC)CCOC(=O)c1ccc(N)cc1 [Procaine] | 4.07 | 
6 | 0.25 | CN1CCN(CCCN2c3ccccc3Sc3ccc(C(F)(F)F)cc32)CC1 [Trifluoperazine] | 5.13 | 
7 | 0.96 | CCN(CC)CCCC(C)Nc1c2ccc(Cl)cc2nc2ccc(OC)cc12 (stereo not shown) [Quinacrine] | 4.69 | 
8 | -0.09 | O=C(CCCN1CCC(O)(c2ccc(Cl)cc2)CC1)c1ccc(F)cc1 [Haloperidol] | 5.64 | 
9 | 0.07 | COC(=O)C1=C(C)NC(C)=C(C(=O)OCCN(C)Cc2ccccc2)C1c1cccc([N+](=O)[O-])c1 (stereo not shown) [Nicardipine] | 5.37 | 
10 | 0.98 | CC12CC3CC(C)(C1)CC(N)(C3)C2 [Memantine] | 4.03 | 
11 | 0.97 | O=C1CC2(CCCC2)CC(=O)N1CCCCN1CCN(c2ncccn2)CC1 [Buspirone] | 3.90 | 
12 | 0.96 | Cc1cccc(C)c1NC(=O)C1CCCCN1C (stereo not shown) [Mepivacaine] | 4.09 | 
13 | 0.01 | COc1ccc(CCN2CCC(Nc3nc4ccccc4n3Cc3ccc(F)cc3)CC2)cc1 [Astemizole] | 5.64 | 
14 | 0.99 | CCc1nc(N)nc(N)c1-c1ccc(Cl)cc1 [Pyrimethamine] | 4.61 | 
15 | 0.32 | CN(C)CCCN1c2ccccc2Sc2ccc(Cl)cc21 [Chlorpromazine] | 5.55 | 
16 | 0.31 | OCCN1CCN(CCCN2c3ccccc3Sc3ccc(C(F)(F)F)cc32)CC1 [Fluphenazine] | 5.10 | 
17 | 0.92 | CCN(CC)CCNC(=O)c1cc(Br)c(N)cc1OC [Bromopride] | 4.38 | 
18 | 0.89 | O=c1[nH]c2ccccc2n1C1CCN(CCCC(c2ccc(F)cc2)c2ccc(F)cc2)CC1 [Pimozide] | 5.77 | 
19 | 0.96 | CC(=O)N1CCN(c2ccc(OCC3COC(Cn4ccnc4)(c4ccc(Cl)cc4Cl)O3)cc2)CC1 (stereo not shown) [Ketoconazole] | 4.35 | 
20 | 0.62 | CCOC(=O)N1CCC(=C2c3ccc(Cl)cc3CCc3cccnc32)CC1 [Loratadine] |  | 
21 | 1.00 | CCN(CC)CCNC(=O)c1ccc(N)cc1 [Procainamide] |  | 
22 | 0.20 | CCCNCC(O)COc1ccccc1C(=O)CCc1ccccc1 (stereo not shown) [Propafenone] |  | 

The next lines start with the compound.

Row | SMILES | Nav1.7 Swarm (score at 3 µM) (human Nav.1.7; [2]) | pIC50 (Nav1.5; [1]) | also measured
23 | CN1CCN(C2=Nc3cc(Cl)ccc3Nc3ccccc32)CC1 [Clozapine] | 0.74 | 4.94 | 
24 | CC(C)COCC(CN(Cc1ccccc1)c1ccccc1)N1CCCC1 (stereo not shown) [Bepridil] |  |  | pIC50 (Nav1.5): 5.72
25 | CSc1ccc2c(c1)N(CCC1CCCCN1C)c1ccccc1S2 (stereo not shown) [Thioridazine] | 0.04 | 5.46 | 
26 | O=c1[nH]c2ccccc2n1CCCN1CCC(n2c(=O)[nH]c3cc(Cl)ccc32)CC1 [Domperidone] | 0.53 | 5.25 | 
27 | CC(C)NC[C@@H](O)COc1cccc2ccccc12 [(R)-Propranolol] | 0.63 |  | pIC50 (Nav1.5): 5.12
28 | COc1c(N2C[C@@H]3CCCN[C@@H]3C2)c(F)cc2c(=O)c(C(=O)O)cn(C3CC3)c12 [Moxifloxacin] | 1.06 |  | 
29 | CN(C)CCCN1c2ccccc2CCc2ccc(Cl)cc21 [Clomipramine] |  | 5.59 | Hit identification in Prestwick Chemical Library pilot screen (human Nav.1.7): hits; Nav1.7 Swarm (score at 3 µM) (human Nav.1.7): 0.20
30 | CN1CCC(=C2c3ccccc3C=Cc3ccccc32)CC1 [Cyproheptadine] | 0.44 | 5.21 | 
31 | Cc1nc2n(c(=O)c1CCN1CCC(c3noc4cc(F)ccc34)CC1)CCCC2 [Risperidone] |  |  | Nav1.7 Swarm (score at 3 µM) (human Nav.1.7): 0.89
32 | CC(CN(C)C)CN1c2ccccc2CCc2ccccc21 (stereo not shown) [Trimipramine] | 0.37 | 5.57 | Hit identification in Prestwick Chemical Library pilot screen (human Nav.1.7; [3]): hits
33 | CN[C@H]1CC[C@@H](c2ccc(Cl)c(Cl)c2)c2ccccc21 [Sertraline] |  |  | Nav1.7 Swarm (score at 3 µM) (human Nav.1.7): 0.87
34 | O=C(NCC1CCCCN1)c1cc(OCC(F)(F)F)ccc1OCC(F)(F)F (stereo not shown) [Flecainide] | 0.72 | 5.24 | 
35 | CC(C)(C)c1ccc(C(O)CCCN2CCC(C(O)(c3ccccc3)c3ccccc3)CC2)cc1 (stereo not shown) [Terfenadine] | 0.39 |  | 
36 | CCCCc1oc2ccccc2c1C(=O)c1cc(I)c(OCCN(CC)CC)c(I)c1 [Amiodarone] |  |  | Nav1.7 Swarm (score at 3 µM) (human Nav.1.7): 0.52
37 | CCCNC(C)C(=O)Nc1ccccc1C (stereo not shown) [Prilocaine] | 0.95 | 4.14 | 
38 | OCCOCCN1CCN(C(c2ccccc2)c2ccc(Cl)cc2)CC1 (stereo not shown) [Hydroxyzine] | 0.56 | 4.48 | 

Row | SMILES | Nav1.7 Swarm (score at 3 µM) (human Nav.1.7; [2]) | pIC50 (Nav1.5; [1]) | also measured
39 | C=C1C[C@@H]2[C@H](CC[C@]3(C)C(=O)CC[C@@H]23)[C@@]2(C)C=CC(=O)C=C12 [Exemestane] | 0.90 | 4.15 | 
40 | CNCCC=C1c2ccccc2CCc2ccccc21 [Nortriptyline] | 0.19 | 5.70 | Hit identification in Prestwick Chemical Library pilot screen (human Nav.1.7; [3]): hits
41 | Cc1cc2c(s1)Nc1ccccc1N=C2N1CCN(C)CC1 [Olanzapine] |  |  | Nav1.7 Swarm (score at 3 µM) (human Nav.1.7): 1.09
42 | CCN(CC)CCCC(C)Nc1ccnc2cc(Cl)ccc12 (stereo not shown) [Chloroquine] |  |  | pIC50 (Nav1.5): 4.44; Nav1.7 Swarm (score at 3 µM) (human Nav.1.7): 0.98
43 | CN(C)CCCN1c2ccccc2CCc2ccccc21 [Imipramine] | 0.35 |  | Hit identification in Prestwick Chemical Library pilot screen (human Nav.1.7; [3]): hits
44 | COc1ccc(C(CN(C)C)C2(O)CCCCC2)cc1 (stereo not shown) [Venlafaxine] | 0.95 | 4.05 | 
45 | CNCCCN1c2ccccc2CCc2ccccc21 [Desipramine] | 0.38 | 5.62 | Hit identification in Prestwick Chemical Library pilot screen (human Nav.1.7; [3]): hits
46 | CCN(CC)CC(=O)Nc1c(C)cccc1C [Lidocaine] |  |  | Nav1.7 Swarm (score at 3 µM) (human Nav.1.7): 0.91; pIC50 (human Nav.1.7; 8 mM bath [K+], mean spike amplitude across all test pulses): 4.82
47 | CNCCCC1c2ccccc2C=Cc2ccccc21 [Protriptyline] | 0.63 | 5.51 | 
48 | Clc1ccc2c(c1)C(N1CCNCC1)=Nc1ccccc1O2 [Amoxapine] |  | 5.24 | 
49 | CN(C)CCC=C1c2ccccc2COc2ccccc21 [doxepin] |  |  | Hit identification in Prestwick Chemical Library pilot screen (human Nav.1.7; [3]): hits
50 | CCc1nn(CCCN2CCN(c3cccc(Cl)c3)CC2)c(=O)n1CCOc1ccccc1 [nefazodone] |  |  | Hit identification in Prestwick Chemical Library pilot screen (human Nav.1.7; [3]): hits
51 | C=C[C@H]1C[N@@]2CC[C@H]1C[C@@H]2[C@@H](O)c1ccnc2ccc(OC)cc12 [Quinidine] |  | 5.01 | 
52 | COC(=O)C1=C(C)NC(C)=C(C(=O)OC)C1c1ccccc1[N+](=O)[O-] [Nifedipine] | 0.97 |  | 
53 | Nc1nc2ccc(OC(F)(F)F)cc2s1 [Riluzole] | 0.14 |  | 
